Laboratory results: patent publication US7615643B2 (SmithKline Beecham Corporation, priority 2006, dated 2009)

Target: T1, PLK1 (Homo sapiens, UniProt P53350)
T1 construct: PLK kinase domain (amino acids 21-346 preceded by MKKGHHHHHHD); made in house; host or cells: baculovirus infected T. ni cells
Experiment: Assay for inhibition of PLK1 (SPA kinase assay)
Type: biochemical
Conditions: 1 μM ATP, 2 nM PLK1 kinase domain, read-out: PLK1 pIC50 (converted)
Method in brief: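 His-tagged PLK1 kinase domain (aa 21-346, baculovirus/T. ni) at 2 nM with 1 μM ATP plus 33P-γ-ATP and 1 μM biotinylated peptide in 25 mM HEPES pH 7.2, 15 mM MgCl2, 1 mM DTT, 0.15 mg/mL BSA; 1-1.5 h at 22° C. Streptavidin SPA capture read; percent inhibition versus DMSO, EDTA background.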

T1 sequence (P53350 21-346): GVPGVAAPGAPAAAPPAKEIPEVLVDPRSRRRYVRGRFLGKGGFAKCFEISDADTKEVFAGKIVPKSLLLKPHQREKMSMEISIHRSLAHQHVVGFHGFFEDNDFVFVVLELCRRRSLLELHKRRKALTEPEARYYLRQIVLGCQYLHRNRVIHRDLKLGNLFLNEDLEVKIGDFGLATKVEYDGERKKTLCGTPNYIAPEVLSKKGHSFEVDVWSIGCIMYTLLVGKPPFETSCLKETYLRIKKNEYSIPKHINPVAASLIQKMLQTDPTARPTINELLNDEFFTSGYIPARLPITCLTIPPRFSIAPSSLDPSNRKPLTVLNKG

Row | IC50 | Structure (SMILES)
1 | < 100 nM | CN1CCC(Oc2cccc(COc3cc(-n4cnc5cc(-c6cnn(C)c6)ccc54)sc3C(N)=O)c2)CC1 [Example 84, 3-[({3-[(1-Methyl-4-piperidinyl)oxy]phenyl}methyl)oxy]-5-[5-(1-methyl-1H-pyrazol-4-yl)-1H-benzimidazol-1-yl]-2-thiophenecarboxamide]
2 | < 100 nM | CC(Oc1cc(-n2cnc3cc(-c4cnn(C)c4)ccc32)sc1C(N)=O)c1cc(OC2CCNCC2)ccn1 (stereo not shown) [Example 85, 5-[5-(1-Methyl-1H-pyrazol-4-yl)-1H-benzimidazol-1-yl]-3-({1-[4-(4-piperidinyloxy)-2-pyridinyl]ethyl}oxy)-2-thiophenecarboxamide]
3 | < 100 nM | Cc1nnc(-c2ccc3c(c2)ncn3-c2cc(O[C@H](C)c3cccc(OC4CCNCC4)c3Cl)c(C(N)=O)s2)o1 [Example 87, 3-({(1R)-1-[2-Chloro-3-(4-piperidinyloxy)phenyl]ethyl}oxy)-5-[5-(5-methyl-1,3,4-oxadiazol-2-yl)-1H-benzimidazol-1-yl]-2-thiophenecarboxamide]
4 | < 100 nM | Cc1nnc(-c2ccc3c(c2)ncn3-c2cc(O[C@H](C)c3cccc(OC4CCN(C)CC4)c3Cl)c(C(N)=O)s2)o1 [Example 88, 3-[((1R)-1-{2-chloro-3-[(1-methyl-4-piperidinyl)oxy]phenyl}ethyl)oxy]-5-[5-(5-methyl-1,3,4-oxadiazol-2-yl)-1H-benzimidazol-1-yl]-2-thiophenecarboxamide]
